Test results taken from PMC11684019, “Unveiling the Antimycobacterial Potential of Novel 4-Alkoxyquinolines: Insights into Selectivity, Mechanism of Action, and In Vivo Exposure” (Journal of Medicinal Chemistry, 2024).
Values after ≈ are worked out from the molar mass of the structure shown. Values joined by “and” are separate entries in the source; they are usually repeats but may differ in a detail not shown here. Equal values may be shown once. Read-outs that look alike come from different tables or passages of the source. Marks after values point to notes of the source that are not given here.

Experiments:
[1] = system: Vero cells; conditions: read-out: CC50 Vero; MTT method, 72 h
[2] = system: HepG2 cells; conditions: read-out: CC50 HepG2; MTT method, 72 h
[3] = system: Acinetobacter baumannii multidrug-resistant clinical isolate; type: cell-based; conditions: tested at 20 μM, 24 h
[4] = 10 μM, pH 7.4, 5 h, 25 °C
[5] = 24 h, 10 μM
Protocol: The assessment of chemical stability at different pH levels provides insights into the quantity or concentration of the test compound that remains unchanged and, consequently, available for absorption. […] Following this incubation period, the test compounds were quantified using HPLC-MS/MS, with alprenolol serving as the analytical control. This experiment was conducted by CEMSA (São Paulo, SP, Brazil).

[6] = system: M. tuberculosis strain PT12 (MDR clinical isolate); type: cell-based, Mycobacterium tuberculosis
[7] = system: M. tuberculosis strain PT20 (MDR clinical isolate); type: cell-based, Mycobacterium tuberculosis
[8] = system: M. tuberculosis H37Rv strain in murine macrophage RAW 264.7 cells; type: cell-based, Mycobacterium tuberculosis; conditions: for Reduction of Mtb load compared to the untreated group: 5 days
[9] = mice; for Plasma concentration: 300 mg/kg single dose gavage
[10] = rat liver microsomes, 2 μM, NADPH, 37 °C
[11] = system: Klebsiella pneumoniae multidrug-resistant clinical isolate; type: cell-based; conditions: tested at 20 μM, 24 h
[12] = system: Escherichia coli ATCC 25922; type: cell-based; conditions: ATCC 25922, tested at 20 μM, 24 h
[13] = system: Staphylococcus aureus ATCC 25923; type: cell-based; conditions: ATCC 25923, tested at 20 μM, 24 h
[14] = Aqueous solubility (UHPLC-DAD); conditions: 25 °C, 4 h
[15] = system: M. tuberculosis strain PT2 (MDR clinical isolate); type: cell-based, Mycobacterium tuberculosis
[16] = system: Vero cells; conditions: read-out: CC50 Vero; Neutral Red method, 72 h
[17] = system: HepG2 cells; conditions: read-out: CC50 HepG2; Neutral Red method, 72 h
[18] = system: M. tuberculosis H37Rv strain; assay: microbe, parasite or virus in culture; type: cell-based, Mycobacterium tuberculosis; conditions: M. tuberculosis H37Rv, resazurin-based assay

## CCc1ccc(NCCCOc2cc(C)nc3ccc(Br)cc23)cc1 [8t, N-(3-((6-bromo-2-methylquinolin-4-yl)oxy)propyl)-4-ethylaniline]
[1]
  CC50: > 20 µM
[2]
  CC50: > 20 µM
[3]
  MIC A. baumannii: MIC A. baumannii = > 20 μM
[4]
  PAMPA permeability: PAMPA = 0.2 × 10^−6 cm/s
[5]; 0.1 M HCl, 37 °C
  Chemical Stability pH 1.2 (percentage of remaining compound): Chemical Stability ^b pH 1.2 ^c = 100%
[5]; 0.1 M NH4HCO3, 37 °C
  Chemical Stability pH 9.1 (percentage of remaining compound): Chemical Stability ^b pH 9.1 ^e = 6.0%
[5]; PBS, 37 °C
  Chemical Stability pH 7.4 (percentage of remaining compound): Chemical Stability ^b pH 7.4 ^d = 5.3%
[6]
  MIC PT12: <0.05 µM
[7]
  MIC PT20: <0.05 µM
[8]
  Kind of effect on intracellular growth of M. tuberculosis H37Rv: bacteriostatic effect
  Log10 CFU/well (Mean ± SD): 3.90 ± 0.30 ^d Log10 CFU/well and 4.10 ± 0.02 ^d Log10 CFU/well
[8]; 1 μM
  Reduction of Mtb load compared to the untreated group: 1.27 log10 CFU
[8]; 5 μM
  Reduction of Mtb load compared to the untreated group: 1.07 log10 CFU
[9]; 300 mg/kg gavage
  Ke (elimination rate constant): 0.16 h^–1
  Plasma concentrations for a span of up to 8 h: exceeding 7.49 μM
  Tmax: 1 h
  t1/2 (elimination half-life): 4.3 ± 1.2 h
[9]; 300 mg/kg gavage, noncompartmental analysis
  Cmax: 32.1 ± 3.9 µM
[9]; 300 mg/kg gavage, time 0 to 8 h
  AUC0-t: 127.5 ± 5.7 µM·h
[9]; 0.5 h
  Plasma concentration: 11.10 ± 1.24 µM
[9]; 0.75 h
  Plasma concentration: 15.73 ± 1.61 µM
[9]; 1 h
  Plasma concentration: 32.15 ± 3.94 µM
[9]; 4 h
  Plasma concentration: 13.45 ± 2.01 µM
[9]; 8 h, 300 mg/kg
  Plasma concentration: 9.80 µM and 9.80 ± 2.13 µM
[10]
  Clint (intrinsic clearance): Clint ^f = 58 mL/min/kg
  t1/2 (half-life): t1/2 ^g = 7.0 min
[11]
  MIC K. pneumoniae: MIC K. pneumoniae = > 20 μM
[12]
  MIC E. coli: MIC E. coli = > 20 μM
[13]
  MIC S. aureus: MIC S. aureus = > 20 μM
[14]; 0.1 M HCl solution
  Solubility pH 1.2: >2,500 μM
[14]; 0.1 M NH4HCO3 solution
  Solubility pH 9.1: 30.22 μM
[14]; PBS
  Solubility pH 7.4: 35.3 μM
[15]
  MIC PT2: <0.05 µM
[16]
  CC50: 11.8 µM
[17]
  CC50: > 20 µM
[18]
  MIC: 0.05 µM (≈ 0.02 µg/mL)
